Test results: patent US9737515B2, “Compositions and methods for inhibiting tumor growth” (Consejo Nacional De Investigaciones Cientificas Y Tecnicas …, priority 2015, dated 2017)

How the values were obtained:
[1] = test system: MCF-7 Tet-Off empty vector cells; experiment: BrdU incorporation cell proliferation assay in MCF-7 Tet-Off empty vector cells; assay type: cell-based; conditions: Homo sapiens, MCF7, 96 h, vs control cells
Experimental: (§1) MCF-7 Tet-Off empty vector and MCF-7 Tet-Off/ACSL4 cells were plated at a density of 4000 cells/well in 96-well plates with 10% FBS-supplemented D-MEM medium and allowed to adhere overnight at 37° C. in a humidified, 5% CO2 atmosphere. The medium was then changed to serum-free medium. After 24 h, the cells were switched to 10% FBS-supplemented D-MEM medium and incubated with rapamycin (10 nM) and/or rosiglitazone (75 μM) for 96 h. Subsequently, cell proliferation was measured by the bromo-deoxyuridine (BrdU) incorporation assay.

[2] = test system: MCF-7 Tet-Off/ACSL4 cells; experiment: BrdU incorporation cell proliferation assay in MCF-7 Tet-Off/ACSL4 cells; assay type: cell-based, human
Experimental: as §1
Following the same procedure as that described in Example 1 above, the cells were switched to 10% FBS-supplemented D-MEM medium and incubated with rosiglitazone (10 or 25 μM) and/or 4-hydroxytamoxifen (4-OHTAM, 2.5 or 5.0 μM). Both rosiglitazone and 4-hydroxytamoxifen were tested alone at each of the concentrations used, and in all the possible combinations with each other (see FIG. 6A).

Compound: CO[C@H]1C[C@@H]2CC[C@@H](C)[C@@](O)(O2)C(=O)C(=O)N2CCCC[C@H]2C(=O)O[C@H]([C@H](C)C[C@@H]2CC[C@@H](O)[C@H](OC)C2)CC(=O)[C@H](C)/C=C(\C)[C@@H](O)[C@@H](OC)C(=O)[C@H](C)C[C@H](C)/C=C/C=C/C=C/1C [Rapamycin]
- inhibition at 0.01 µM ([1]; Rapamycin 10 nM): 12.2%
- inhibition at 0.01 µM ([2]; Homo sapiens, MCF7, 96 h, Rapamycin 10 nM, vs control cells): 25%
- % inhibition of cell proliferation ([2]; Rapamycin 10 nM, 96 h, vs control cells): 22.159%

Compound: 4-hydroxytamoxifen [4-OHT]
- % inhibition of cell proliferation ([2]; 4-OHT 2.5 μM, 96 h): 0.802%
- % inhibition of cell proliferation ([2]; 4-OHT 5 μM, 96 h): 3.464%
- inhibition of cell proliferation (in words) ([2]; rosiglitazone 10 or 25 μM and/or 4-OHTAM 2.5 or 5 μM, 96 h, FIG. 6A): did not produce a significant inhibition

Compound: CN(CCOc1ccc(CC2SC(=O)NC2=O)cc1)c1ccccn1 (stereo not shown) [Rosiglitazone]
- inhibition at 75 µM ([1]; Rosiglitazone 75 μM): 2.81%
- inhibition at 10 µM ([2]; Homo sapiens, MCF7, 96 h, Rosiglitazone 10 μM): 1.88%
- inhibition at 25 µM ([2]; Homo sapiens, MCF7, 96 h, Rosiglitazone 25 μM): 7.97%
- inhibition at 75 µM ([2]; Homo sapiens, MCF7, 96 h, Rosiglitazone 75 μM, vs control cells): 28.5%
